Assays:
[1] = Clearance in dog at 1 mg/kg, iv; format: ADME, organism-based, Canis lupus familiaris; details: in vivo
Mus musculus [2] = test: Suppression of ear thickness in mouse model of IL-23 induced acanthosis model of psoriasis at 3 mg/kg, po BID for 10 days measured every other day relative to control; format: functional; details: 240 h
Mus musculus [3] = test: Suppression of ear thickness in mouse model of IL-23 induced acanthosis model of psoriasis at 3 mg/kg, po BID for 10 days measured every other day relative to anti-IL-23 positive control; format: functional
Cytochrome P450 1A2 = target: T1, Cytochrome P450 1A2 (Homo sapiens, UniProt P05177); test: Inhibition of recombinant CYP1A2 (unknown origin); format: ADME
T1 sequence (P05177 whole entry): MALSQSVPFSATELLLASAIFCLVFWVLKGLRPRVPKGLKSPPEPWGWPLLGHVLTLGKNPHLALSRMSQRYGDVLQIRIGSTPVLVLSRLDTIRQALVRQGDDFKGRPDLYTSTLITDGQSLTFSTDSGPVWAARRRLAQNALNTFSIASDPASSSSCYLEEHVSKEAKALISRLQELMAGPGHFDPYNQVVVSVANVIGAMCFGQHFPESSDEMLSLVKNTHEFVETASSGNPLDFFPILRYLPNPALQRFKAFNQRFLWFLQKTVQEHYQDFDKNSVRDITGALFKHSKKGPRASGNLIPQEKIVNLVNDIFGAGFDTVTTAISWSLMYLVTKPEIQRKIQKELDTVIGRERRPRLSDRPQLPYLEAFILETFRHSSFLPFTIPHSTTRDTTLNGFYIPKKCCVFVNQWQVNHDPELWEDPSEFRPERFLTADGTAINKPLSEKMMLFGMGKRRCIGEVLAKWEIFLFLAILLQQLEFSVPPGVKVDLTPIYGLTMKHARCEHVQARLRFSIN

[4] = Cmax in rat at 4 mg/kg, po; format: ADME, organism-based; set-up: dose 4 mg/kg, route oral; details: in vivo
Mus musculus [5] = test: Suppression of ear thickness in mouse model of IL-23 induced acanthosis model of psoriasis at 30 mg/kg, po BID for 10 days measured every other day relative to control; format: functional; details: 240 h
Mus musculus [6] = test: Suppression of IL-17F RNA expression in skin region of mouse model of IL-23 induced acanthosis model of psoriasis at 30 mg/kg, po BID for 10 days measured every other day relative to control; format: functional; details: 240 h
[7] = target: T2, Nuclear receptor ROR-beta (Homo sapiens, UniProt Q92753); test: Activity at RORbeta (unknown origin)
T2 sequence (Q92753 whole entry): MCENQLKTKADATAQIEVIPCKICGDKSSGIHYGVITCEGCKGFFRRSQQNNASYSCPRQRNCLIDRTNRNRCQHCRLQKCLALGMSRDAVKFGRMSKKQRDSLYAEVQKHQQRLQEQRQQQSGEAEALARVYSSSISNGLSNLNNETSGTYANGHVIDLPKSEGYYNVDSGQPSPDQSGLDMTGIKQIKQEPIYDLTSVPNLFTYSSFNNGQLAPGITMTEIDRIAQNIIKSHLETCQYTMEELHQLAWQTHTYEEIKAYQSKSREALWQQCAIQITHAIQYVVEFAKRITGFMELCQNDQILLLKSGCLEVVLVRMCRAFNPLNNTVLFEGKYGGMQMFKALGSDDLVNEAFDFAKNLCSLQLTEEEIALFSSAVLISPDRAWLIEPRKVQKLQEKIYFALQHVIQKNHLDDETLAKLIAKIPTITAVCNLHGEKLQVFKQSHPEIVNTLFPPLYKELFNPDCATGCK

Mus musculus [8] = test: Suppression of IL-17F RNA expression in skin region of mouse model of IL-23 induced acanthosis model of psoriasis at 3 to 30 mg/kg, po BID for 10 days measured every other day; format: functional
[9] = target: T3, Nuclear receptor ROR-gamma (Mus musculus, UniProt P51450); test: Inverse agonist activity at RORgammat in CD3/CD28/IL-1/IL-23-stimulated C57/B6 mouse whole blood assessed as reduction in IL17A production incubated for 1 hr before stimulation with CD3/CD28/IL-1/IL-23 for 24 hrs by AlphaLISA method; format: tissue-based
T3 sequence (P51450 whole entry): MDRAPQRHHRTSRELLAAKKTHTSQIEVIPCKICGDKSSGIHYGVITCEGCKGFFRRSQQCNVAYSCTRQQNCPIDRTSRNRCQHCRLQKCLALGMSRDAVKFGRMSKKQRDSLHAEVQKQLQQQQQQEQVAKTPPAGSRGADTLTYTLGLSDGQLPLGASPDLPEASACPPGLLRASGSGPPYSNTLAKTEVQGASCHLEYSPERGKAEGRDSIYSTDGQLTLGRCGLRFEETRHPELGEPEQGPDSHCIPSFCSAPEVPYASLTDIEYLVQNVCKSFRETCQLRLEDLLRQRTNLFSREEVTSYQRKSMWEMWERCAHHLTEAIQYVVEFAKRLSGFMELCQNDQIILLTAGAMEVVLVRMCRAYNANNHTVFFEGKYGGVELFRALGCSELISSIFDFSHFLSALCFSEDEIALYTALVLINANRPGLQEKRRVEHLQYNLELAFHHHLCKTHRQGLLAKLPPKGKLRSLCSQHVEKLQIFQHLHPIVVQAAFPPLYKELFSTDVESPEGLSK

[10] = target: T4, Nuclear receptor ROR-alpha (Homo sapiens, UniProt P35398); test: Activity at RORalpha (unknown origin)
T4 sequence (P35398 whole entry): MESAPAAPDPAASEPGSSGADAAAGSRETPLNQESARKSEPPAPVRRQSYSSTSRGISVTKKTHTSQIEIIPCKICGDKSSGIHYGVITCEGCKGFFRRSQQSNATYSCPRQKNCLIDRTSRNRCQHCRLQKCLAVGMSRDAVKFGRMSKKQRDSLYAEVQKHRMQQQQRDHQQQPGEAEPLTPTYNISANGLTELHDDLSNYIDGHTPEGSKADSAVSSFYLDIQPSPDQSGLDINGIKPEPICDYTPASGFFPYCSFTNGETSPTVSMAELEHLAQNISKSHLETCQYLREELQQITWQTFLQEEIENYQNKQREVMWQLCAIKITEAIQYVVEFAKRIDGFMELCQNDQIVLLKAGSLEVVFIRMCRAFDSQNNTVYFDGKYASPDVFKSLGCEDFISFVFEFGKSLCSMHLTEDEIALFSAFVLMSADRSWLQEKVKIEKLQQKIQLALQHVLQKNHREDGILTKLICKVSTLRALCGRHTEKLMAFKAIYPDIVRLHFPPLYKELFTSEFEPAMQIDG

[11] = Half life in mouse liver microsomes; format: ADME, Microsome

clearance [1]: 0.35 mL/min/kg
IC50 (Cytochrome P450 1A2): > 20 µM
Cmax [4]: 1100 nM
IC50 [7]: > 10 µM
EC50 [9]: 0.44 µM
IC50 [10]: > 10 µM
half-life [11]: > 2 h
Structure (SMILES): O=C(N1CC[C@@]2(S(=O)(=O)c3ccc(F)cc3)c3ccc(C(F)(C(F)(F)F)C(F)(F)F)cc3CC[C@@H]12)C1(O)CCS(=O)(=O)CC1
inhibition in vivo at 3 mg/kg (Mus musculus [2]): 28%
Efficacy (Mus musculus [3]): 48%
inhibition in vivo at 30 mg/kg (Mus musculus [5]): 57%
inhibition in vivo at 30 mg/kg (Mus musculus [6]): 85%
Activity (Mus musculus [8]): Dose-dependent effect
ED50 (Mus musculus [8]; 240 h): 3 mg/kg

From ChEMBL document CHEMBL4334512, “Rationally Designed, Conformationally Constrained Inverse Agonists of RORγt-Identification of a Potent, Selective Series with Biologic-Like in Vivo Efficacy” (J Med Chem, 2019)
